One series is described as follows: in vivo. To be noted: CBA, mouse, sc, 2.5 mg/kg.
Another series concerns Klebsiella pneumoniae. Description: Antimicrobial activity against qnr-negative Klebsiella pneumoniae C2 harboring qnrA1 gene.

The values below come from ChEMBL document CHEMBL1671667, “Impact of low-level resistance to fluoroquinolones due to qnrA1 and qnrS1 genes or a gyrA mutation on ciprofloxacin bactericidal activity in a murine model of Escherichia coli urinary tract infection” (Antimicrob Agents Chemother, 2009).

In general, Cmax refers to the peak of the concentration-time curve. For orientation: MIC means the smallest concentration in the dilution series that meets the test's criterion for growth inhibition. Higher therefore signals weaker potency.

The structures appear in SMILES notation. In brackets after ≈: the same amount, converted by molar mass.

Description for in vivo: Cmax in immunocompetent CBA mouse infected with Escherichia coli at 2.5 mg/kg, sc administered as single dose after 15 mins by liquid chromatography

In the case of `O=C(O)c1cn(C2CC2)c2cc(N3CCNCC3)c(F)cc2c1=O` [CIPROFLOXACIN], in “in vivo”, the Cmax at 0.25 h was 1100 ng/mL. This compound yielded an MIC against Klebsiella pneumoniae of 4 µg/mL (≈ 12.1 µM).
